In patent EP0060954A1, “Derivatives of fluorophenacyl amines and their therapeutic use” (LABORATOIRE L. LAFON Société anonyme dite:, priority 1981, dated 1982):
Values joined by “and” are separate entries in the source; they are usually repeats but may differ in a detail not shown here. Identical values can stand only once.

How the values were obtained:
chiens [1] = assay: Cardiovascular action, intravenous perfusion in dogs; type: in vivo, chien; conditions: for minimal effective dose: Canis lupus familiaris, iv
Protocol: Deux chiens reçoivent le CRL 40727 par voie intraveineuse, en perfusion de 6 min, aux doses successives de 0,1 mg/kg, 1 mg/kg, 2,5 mg/kg, 5 mg/kg, 10 mg/kg et 20 mg/kg. On messure leur pression artérielle, leur fréquence cardiaque, leur débit fémoral, leur température rectale.

chiens [2] = assay: Cardiovascular action, intraduodenal route in dogs; type: in vivo, chien
Protocol: Trois chiens reçoivent le CRL 40727 par voie intraduodénale aux doses successives de 1 mg/kg, 2,5 mg/kg, 5 mg/kg et 10 mg/kg. On mesure les mêmes paramètres que ci-dessus. On observe ce qui suit.

homme = assay: Clinical use as sedative and antidepressant agents; type: in vivo; conditions: for résultats en tant qu'agents antidépresseurs chez l'homme: tablets or capsules of 5 mg, 3 per day
[3] = CNS action of CRL 40727: hypothermia and amphetamine stereotypies (species not given); conditions: in vivo
souris [4] = assay: Interaction with apomorphine, mouse; type: in vivo
Protocol: (§1) Le CRL 40827, en solution dans de l'eau distillée, a été administré par voie intrapéritonéale sous un volume de 20 ml/kg chez la souris mâle et un volume de 5 ml/kg chez le rat mâle. 1°) - Toxicité
Des lots de 6 souris reçoivent le CRL 40827 30 min avant l'injection sous-cutanée d'apomorphine à la dose de 1 ou 16 mg/kg.
(§2) En procédant selon les modalités opératoires données ci-dessus pour le CRL 40827, on observe ce qui suit.

souris [5] = assay: CNS action of CRL 40727: sedative-type effects in the mouse; type: in vivo
souris [6] = assay: Toxicity: maximal non-lethal dose DL-0, intraperitoneal; type: in vivo; conditions: mouse, i.p.
Protocol: La dose maximale non mortelle, DL-0, est supérieure à 128 mg/kg et inférieure à 256 mg/kg, chez la souris, par voie I.P. 2°) - Action sur le SNC
as §1
La dose maximale non mortelle, DL-0, est supérieure à 64 mg/kg et inférieure à 128 mg/kg chez la souris mâle.
Le CRL 40854, en solution dans de l'eau distillée, a été administré par voie intrapéritonéale sous un volume de 20 ml/kg chez la souris màle et de 5 ml/kg chez le rat màle.
La dose maximale non mortelle DL-0 est supérieure à 128 mg/kg et inférieure à 256 mg/kg chez la souris.

souris [7] = assay: Motility reduced by habituation to the enclosure; type: in vivo; conditions: mouse
Protocol: Après 18 h de séjour dans les actimètres, les souris (6 par dose, 12 témoins) reçoivent le CRL 40827. Elles sont aussitôt replacées dans leurs enceintes respectives et, 30 min plus tard, on enregistre leur motilité pendant 30 min.
as §2

souris [8] = assay: Spontaneous motility (actimeter); type: in vivo; conditions: mouse; high dose 64 mg/kg
Protocol: Une demi-heure après avoir reçu le CRL 40827, les souris (6 par dose, 12 témoins) sont placées en actimètre où leur motilité est enregistrée pendant 30 min.
as §2

souris [9] = assay: Four-plate test, traction and electroshock; type: in vivo; conditions: mouse, 30 min after dosing
Protocol: Le test est pratiqué sur des lots de 10 souris, 30 min après l'administration de CRL 40827.
as §2

souris [10] = assay: Interaction with oxotremorine; type: in vivo; conditions: mouse
Protocol: Le CRL 40827 est administré à des lots de 6 souris 30 min avant l'injection intrapéritonéale de 0,5 mg/kg d'oxotrémo- rine. On observe que, dès la dose de 0,5 mg/kg, le CRL 40827 antagonise l'action hypothermisante de l'oxotrémorine; cet effet est très net à 32 mg/kg.
as §2

rats = assay: Interaction with amphetamine (stereotypies); type: in vivo, rat; conditions: 8 and 32 mg/kg
Protocol: L'amphétamine (2 mg/kg) est injectée par voie intrapéritonéale à des lots de 6 rats, 30 min après l'administration de CRL 40827. […] Interaction avec la réserpine
as §2

rat = assay: Interaction with apomorphine, rat; type: in vivo; conditions: i.p. 30 min before apomorphine 0,5 mg/kg s.c.
Protocol: as §1
Le CRL 40 827 est administré à des lots de 6 rats 30 min avant l'injection sous-cutanée de 0,5 mg/kg d'apomorphine.
as §2

souris [11] = assay: Interaction with reserpine (hypothermia, ptosis); type: in vivo; conditions: mouse
Protocol: Quatre heures après l'injection intrapéritonéale de 2,5 mg/kg de réserpine, des lots de 6 souris reçoivent le CRL 40827.
as §2

souris [12] = assay: Motility reduced by hypoxic aggression (acute hypobaric anoxia); type: in vivo; conditions: mouse
Protocol: Une demi-heure après avoir reçu le CRL 40827, les souris (10 par dose, 20 témoins) sont soumises à une anoxie hypobare aiguë (dépression de 8 x 10^4 Pa en 90 s, détente de 45 s), puis elles sont placées en actimètre où leur motilité est enregistrée pendant 10 min.
as §2

souris mâles = assay: Intergroup aggressiveness test (number of fights after removal of the partition); type: in vivo; conditions: mouse; dose not given
From the text: Des essais comparatifs ont été entrepris pour mettre en évidence quels sont les effets chez l'animal qui permettent de distinguer les produits selon l'invention de leurs homologues fluorés connus. Parmi ces essais, on a résumé ceux concernant les propriétés antiagressives. Plus précisément, on a évalué la diminution de l'agressivité intergroupes selon la technique suivante : a.près avoir séjourné pendant 3 semaines de part et d'autre d'une cloison opaque séparant leur cage par le milieu, des groupes de trois souris mâles de 20 g chacune environ reçoivent, par voie intrapéritonéale, les produits à tester en solution dans de l'eau distillée, les animaux témoins ne recevant que de l'eau distillée par voie intrapéritonéale. Une demi-heure plus tard, les deux groupes d'une même cage sont réunis par retrait de la cloison opaque et on note le nombre de combats qui surviennent en 10 min. On a utilisé trois cages pour chaque produit à tester et six cages pour le lot témoin ne recevant pas les produits à tester.
Les résultats du tableau I ci-après donnent la diminution de l'agressivité intergroupes par rapport au lot témoin, tous les produits à tester étant administrés à la dose de 8 mg/kg par voie intrapéritonéale. […]

souris [13] = assay: Asphyxic anoxia (gallamine triethiodide); type: in vivo; conditions: mouse
Protocol: Des lots de 10 souris reçoivent le CRL 40827 30 min avant l'administration intrapéritonéale d: 34 mg/kg de triiodoéthy- late de gallamine. A la plus forte dose (34 mg/kg),le CRL 40827 empêche l'apparition des convulsions et de la mort chez 40% des animaux.
as §2

## COc1cc(OC)c(C(=O)CCCN2CCCC2)c(OC)c1 [LL 1656, chlorhydratede (2,4,6-triméthoxyphényl)-(3-pyrrolidino-propyl)-cétone, reference compound]
Chiens [1]; one dog, 6 mg/kg I.V. after the CRL 40727 doses
  débit fémoral: n'augmente pas plus qu'avec la dose de 10 mg/kg de CRL 40727
Chiens [2]; 6 mg/kg i.v., injected after CRL 40727
  vasodilatation: n'entraîne pas de vasodilatation supplémentaire

## CC(C)(C)NCC(O)c1ccccc1F (stereo not shown) [CRL 40827A, fumaratede 1-(2-fluorophényl)-2-tertiobutylamino-1-éthanol]
homme
  résultats en tant qu'agents antidépresseurs chez l'homme: excellents résultats

## CC(C)NCC(=O)c1ccc(F)cc1 [CRL 40727, chlorhydratede N-(4-fluorophénacyl)-isopropylamine]
[3]
  effets de type sédatif: température, effets hypothermisants de l'apomorphine, l'oxotrémorine et la réserpine: hypothermie et potentialisation des effets hypothermisants de l'apomorphine, l'oxotrémorine et la réserpine
  stéréotypies amphétaminiques: antagonisme modéré
Souris [4]
  comportement de verticalisation et stéréotypies (apomorphine): ne modifie pas
Souris [4]; 0,5, 2 and above all 8 and 32 mg/kg i.p., 30 min before apomorphine 16 mg/kg s.c.
  action hypothermisante de la forte dose d'apomorphine: s'oppose nettement
Chiens [1]; dog, i.v., successive doses 0,1 to 20 mg/kg, read-out: dose from which the débit fémoral increases
  minimal effective dose: 1 mg/kg
Chiens [1]; dog, i.v., read-out: dose from which the pression artérielle diastolique decreases
  minimal effective dose: 10 mg/kg
Chiens [1]; dog, i.v., read-out: dose from which the pression artérielle différentielle increases
  minimal effective dose: 5 mg/kg
Chiens [1]; dog, i.v., read-out: dose from which the pression artérielle moyenne decreases
  minimal effective dose: 20 mg/kg
Chiens [1]; dog, i.v.
  fréquence cardiaque: n'est pas nettement modifiée
  hypotension à l'isoprénaline: n'est pas modifiée
Chiens [1]; dog, mean, after 10 mg/kg i.v., control 215
  fréquence cardiaque (tachycardie à l'isoprénaline): 182 battements/min
Chiens [1]; one dog, supplementary dose of 40 mg/kg I.V.
  pression artérielle: hypotension plus importante qu'à la dose précédente
homme; clinic
  résultats cliniques dans le domaine psychotrope en tant qu'agents sédatifs et antidépresseurs: bons résultats
homme
  résultats en tant qu'agents antidépresseurs chez l'homme: excellents résultats
Chiens [2]; Canis lupus familiaris, dog, intraduodenal, read-out: dose from which une action hypotensive appears
  minimal effective dose: 10 mg/kg
Chiens [2]; another dog, 5 mg/kg I.V. at the end of the intraduodenal test
  action hypotensive et vasodilatatrice: Le même résultat
Chiens [2]; dog, intraduodenal
  hypotension à l'isoprénaline: n'est pas modifiée
Chiens [2]; dog, mean, after 10 mg/kg intraduodenal, control 220
  fréquence cardiaque (tachycardie à l'isoprénaline): 165 battements/min
Chiens [2]; one dog, supplementary dose of 20 mg/kg I.D.
  action hypotensive et vasodilatatrice: action hypotensive plus importante, sans effet vasodilatateur supplémentaire
Souris [5]
  effets de type sédatif: motilité et agressivité: hypomotilité et diminution de l'agressivité
  effets de type sédatif: sédation, réactivité: sédation et hyporéactivité
Souris [6]
  dose maximale non mortelle, DL-0: > 128 mg/kg and < 256 mg/kg

## CC(C)(C)NCC(O)c1ccc(F)cc1 (stereo not shown) [CRL 40854, chlorhydratede 1-(4-fluorophényl)-2-tertiobutylamino-1-éthanol]
Souris [4]
  comportement de verticalisation et stéréotypies (apomorphine): sans modifier
Souris [4]; 16 and 64 mg/kg i.p.
  action hypothermisante de l'apomorphine: s'oppose modérément
Souris [7]
  activité motrice (souris habituée à son enceinte): ne provoque pas de reprise nette
Souris [8]
  motilité spontanée: diminue modérément
Souris [9]
  effets convulsivants de l'électrochoc: ne modifie pas les effets convulsivants
  incapacité motrice (traction): ne provoque pas de déficit moteur majeur
  nombre de passages punis (test des quatre plaques): n'entraîne pas d'augmen- tion
Souris [10]
  signes de stimulation cholinergique périphérique (oxotrémorine): ne modifie pas
  tremblements provoqués par l'oxotrémorine: ne modifie pas
Souris [10]; doses printed 'le et 64 mg/kg'
  effet hypothermisant de l'oxotrémorine: aggrave
rats
  durée des stéréotypies amphétaminiques: potentialise
rat
  stéréotypies induites par l'apomorphine: ne modifie pas
Souris [11]
  ptôsis réserpinique: gans modifier
Souris [11]; 4, 16 and 64 mg/kg
  hypothermie réserpinique: antagonise modérément
Souris [12]
  récupération motrice après anoxie hypobare: n'entraîne pas d'amélioration
Souris mâles
  agressivité intergroupes / effet antiagressif: diminue l'agressivité intergroupes
Souris [6]
  dose maximale non mortelle, DL-0: > 128 mg/kg and < 256 mg/kg
Souris [13]
  apparition des convulsions et mort (anoxie par curarisation): ne modifie pas
